Values joined by “and” are separate entries in the source; they are usually repeats but may differ in a detail not shown here. Equal values may be shown once. Read-outs that look alike come from different tables or passages of the source.
Key:
[1] = DPPH free radical scavenging antioxidant assay
Procedure: H2O2 produced during metabolic events in the brain may be crucial for signaling and metabolic functions. The compounds were screened to check their potential to inhibit ROS through the DPPH assay. […] However, further studies are required to confirm this effect.
The DPPH approach, which gauges the free radical scavenging activity, was used to evaluate the antioxidant properties of the compounds. The test was performed according to the literature method. The stock solution of DPPH (0.5 mM) was prepared, and methanol was used to create each dilution. The different concentrations (10, 25, 50, 75, and 100 μM) of the test compounds (C1–C15) were prepared and compared with the standard ascorbic acid. The percentage antioxidant activity of the compounds was calculated using the following formula: % Antioxidant activity = [(Aabsorbance − Atest)/Aabsorbance] × 100.

hMAO-A = target: T1, hMAO-A (Homo sapiens, UniProt P21397); assay: MAO inhibition assay (Amplex Red, fluorimetric), MAO-A
T1 sequence (P21397 1-527): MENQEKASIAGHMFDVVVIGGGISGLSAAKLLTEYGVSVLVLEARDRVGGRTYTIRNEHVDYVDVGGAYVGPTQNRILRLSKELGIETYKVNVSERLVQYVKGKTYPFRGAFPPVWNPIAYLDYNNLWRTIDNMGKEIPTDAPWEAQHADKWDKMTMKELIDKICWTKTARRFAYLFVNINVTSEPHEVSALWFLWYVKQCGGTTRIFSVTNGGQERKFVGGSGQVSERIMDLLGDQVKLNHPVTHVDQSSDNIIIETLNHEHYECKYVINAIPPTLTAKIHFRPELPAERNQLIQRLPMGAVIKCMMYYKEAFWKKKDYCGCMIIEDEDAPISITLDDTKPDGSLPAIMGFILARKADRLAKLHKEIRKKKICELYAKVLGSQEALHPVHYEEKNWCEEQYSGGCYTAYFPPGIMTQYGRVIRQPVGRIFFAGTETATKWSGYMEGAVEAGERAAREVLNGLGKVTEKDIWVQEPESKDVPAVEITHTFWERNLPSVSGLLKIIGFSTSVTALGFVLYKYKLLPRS

hMAO-B = target: T2, hMAO-B (Homo sapiens, UniProt P27338); assay: MAO inhibition assay (Amplex Red, fluorimetric), MAO-B
T2 sequence (P27338 1-520): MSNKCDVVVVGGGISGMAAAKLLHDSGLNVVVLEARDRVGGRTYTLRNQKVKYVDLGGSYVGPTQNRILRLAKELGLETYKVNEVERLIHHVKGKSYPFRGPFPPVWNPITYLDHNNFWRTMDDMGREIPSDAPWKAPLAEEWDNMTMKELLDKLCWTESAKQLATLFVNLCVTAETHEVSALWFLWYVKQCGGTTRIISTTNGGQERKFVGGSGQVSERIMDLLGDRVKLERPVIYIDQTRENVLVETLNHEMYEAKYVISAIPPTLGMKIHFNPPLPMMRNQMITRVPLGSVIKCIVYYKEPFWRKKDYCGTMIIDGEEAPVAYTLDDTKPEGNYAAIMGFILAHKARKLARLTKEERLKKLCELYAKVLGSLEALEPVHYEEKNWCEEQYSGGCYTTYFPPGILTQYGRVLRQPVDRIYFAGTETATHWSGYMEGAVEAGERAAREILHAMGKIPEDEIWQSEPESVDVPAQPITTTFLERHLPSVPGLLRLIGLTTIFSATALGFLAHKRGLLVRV

[2] = read-out: Percentage Inhibition at 20 μM MAO-A
[3] = read-out: Percentage Inhibition at 20 μM MAO-B
[4] = read-out: IC50 Values MAO-A, class symbol, IC50 not calculated
[5] = read-out: Percentage Inhibition at 20 μM MAO-A, 20 μM

Row | SMILES | % Antioxidant Activity ([1]; 10 µM) | % Antioxidant Activity ([1]; 25 µM) | % Antioxidant Activity ([1]; 50 µM) | % Antioxidant Activity ([1]; 75 µM) | % Antioxidant Activity ([1]; 100 µM) | % Antioxidant Activity ([1]; 100 µM, listed as ascorbic acid) | inhibition at 20 µM (hMAO-A; [2]) | inhibition at 20 µM (hMAO-B; read-out: IC50 Values MAO-B) | inhibition at 20 µM (hMAO-B; [3]) | inhibition at 20 µM (hMAO-A; read-out: IC50 Values MAO-A) | inhibition at 20 µM (hMAO-A; [4]) | inhibition at 20 µM (hMAO-A; [5]) | IC50 (hMAO-A) | Percentage Inhibition at 20 μM MAO-A (hMAO-A; 20 μM)
1 | O=C1O[C@H]([C@@H](O)CO)C(O)=C1O [Ascorbic acid, ascorbic acid, reference compound] | 8.03% | 20.27% | 40.23% | 46.33% | 58.53% | 50% |  |  |  |  |  |  |  | 
2 | C#CCN(C)CCCOc1ccc(Cl)cc1Cl [Clorgyline, clorgyline, reference compound] |  |  |  |  |  |  | 95% |  |  |  |  |  |  | 
3 | O=C(/C=C/c1ccc(Br)cc1)c1ccc(N2CCOCC2)cc1 [Compound C1, (E)-3-(4-Bromophenyl)-1-(4-morpholinophenyl)prop-2-en-1-one] | 9.24% | 21.80% | 35.78% | 50% and 53.13% | 50% and 54.82% |  | 13.6% | < 50% | 6.59% | < 50% |  |  |  | 
4 | O=C(/C=C/c1ccc(Cl)c(Cl)c1)c1ccc(N2CCOCC2)cc1 [Compound C2, (E)-3-(3,4-Dichlorophenyl)-1-(4-morpholinophenyl)prop-2-en-1-one] | 6.63% | 25.78% | 37.18% | 50% and 50.91% | 50% and 53.12% |  |  | < 50% | 4.74% |  | < 50% | 19.4% |  | 
5 | O=C(/C=C/c1ccc(F)cc1)c1ccc(N2CCOCC2)cc1 [Compound C3, (E)-3-(4-Fluorophenyl)-1-(4-morpholinophenyl)prop-2-en-1-one] | 14.58% | 38.25% | 40.31% | 50% and 53.10% | 56.87% |  |  | < 50% | 7.11% |  | < 50% | 37.7% |  | 
6 | COc1ccc(/C=C/C(=O)c2ccc(N3CCOCC3)cc2)cc1OC [Compound C4, (E)-3-(3,4-Dimethoxyphenyl)-1-(4-morpholinophenyl)prop-2-en-1-one] | 16.37% | 32.47% | 41.07% | 33.69% | 50% and 52.62% |  |  | < 50% | 5.56% |  | < 50% | 15.8% |  | 
7 | O=C(/C=C/c1ccc(Br)c(F)c1)c1ccc(N2CCOCC2)cc1 [Compound C5, (E)-3-(4-Bromo-3-fluorophenyl)-1-(4-morpholinophenyl)prop-2-en-1-one] | 19.11% | 23.41% | 38.15% | 49.88% | 50% and 50.95% |  |  | < 50% | 6.54% |  | < 50% | 36.8% |  | 
8 | O=C(/C=C/c1ccc(Cl)cc1)c1ccc(N2CCOCC2)cc1 [Compound C7, (E)-3-(4-Chlorophenyl)-1-(4-morpholinophenyl)prop-2-en-1-one] | 13.81% | 15.62% | 32.06% | 50% and 52.12% | 50% and 53.37% |  | 21.4% | < 50% | 7.43% | < 50% |  |  |  | 
9 | Cc1cccc(/C=C/C(=O)c2ccc(N3CCOCC3)cc2)c1 [Compound C8, (E)-1-(4-Morpholinophenyl)-3-(m-tolyl)prop-2-en-1-one] | 16.56% | 31.47% | 36.01% | 49.24% | 66.42% |  |  | < 50% | 6.32% |  | < 50% | 3.11% |  | 
10 | Cc1ccc(/C=C/C(=O)c2ccc(N3CCOCC3)cc2)cc1 [Compound C9, (E)-1-(4-Morpholinophenyl)-3-(p-tolyl)prop-2-en-1-one] | 8.65% | 23.43% | 35.75% | 39.19% | 44.66% |  | 4.95% | < 50% | 6.77% | < 50% |  |  |  | 
11 | O=C(/C=C/c1cccc(F)c1)c1ccc(N2CCOCC2)cc1 [Compound C10, (E)-3-(3-Fluorophenyl)-1-(4-morpholinophenyl)prop-2-en-1-one] | 17.09% | 21.05% | 34.56% | 42.27% | 32.62% |  |  | < 50% | 12.4% |  | < 50% | 33.9% |  | 
12 | COc1ccccc1/C=C/C(=O)c1ccc(N2CCOCC2)cc1 [Compound C11, (E)-3-(2-Methoxyphenyl)-1-(4-morpholinophenyl)prop-2-en-1-one] | 13.89% | 16.00% | 40.26% | 27.09% | 36.45% |  |  | < 50% | 18.6% |  | < 50% | 21.1% |  | 
13 | O=C(/C=C/c1ccccc1Cl)c1ccc(N2CCOCC2)cc1 [Compound C12, (E)-3-(2-Chlorophenyl)-1-(4-morpholinophenyl)prop-2-en-1-one] | 3.03% | 19.54% | 40.88% | 44.56% | 35.95% |  |  | < 50% | 23.9% |  |  | 67.7% | 9.35 ± 0.11 µM | 67.76%
14 | CCc1ccc(/C=C/C(=O)c2ccc(N3CCOCC3)cc2)cc1 [Compound C13, (E)-3-(4-Ethylphenyl)-1-(4-morpholinophenyl)prop-2-en-1-one] | 2.54% | 15.55% | 41.40% | 22.18% | 66.87% |  | 7.25% | < 50% | 17.5% |  |  |  |  | 
15 | Cc1ccccc1/C=C/C(=O)c1ccc(N2CCOCC2)cc1 [Compound C15, (E)-1-(4-Morpholinophenyl)-3-(o-tolyl)prop-2-en-1-one] | 6.51% | 30.71% | 41.06% | 32.50% | 29.17% |  |  | < 50% | 25.7% |  |  | 6.17% |  | 
16 | C#CCN(C)Cc1ccccc1 [Pargyline, pargyline, reference compound] |  |  |  |  |  |  | < 50% |  | 99% |  |  |  |  | 
